Assay results: PubChem BioAssay AID256 (DTP/NCI, 2004)
“And” between values parts separate entries of the source, which are not always exact repeats. Equal entries are not always repeated. Inconclusive results and toxic doses are left out.

Tested on: CD2F1 mice, L1210 leukemia ip, survival T/C
Experiment: NCI In Vivo Anticancer Drug Screen. Data for tumor model L1210 Leukemia (intraperitoneal) in CD2F1 (CDF1) mice
Details: higher = longer survival
Method in brief: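 Antitumor effect is scored in animals hosting a serially transplanted tumor. Values compare compound-dosed animals against vehicle-only controls as a simple quotient.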

[1] = endpoint: mean survival time, dose: 100.0 mg/kg/injection, schedule: Q04DX003 (ip), vehicle: saline with Tween-80
[2] = endpoint: mean survival time, dose: 200.0 mg/kg/injection, schedule: Q04DX003 (ip), vehicle: saline with Tween-80
[3] = endpoint: mean survival time, dose: 400.0 mg/kg/injection, schedule: Q04DX003 (ip), vehicle: saline with Tween-80
[4] = endpoint: mean survival time, dose: 100.0 mg/kg/injection, schedule: Q01DX009 (ip), vehicle: saline with Tween-80
[5] = endpoint: mean survival time, dose: 200.0 mg/kg/injection, schedule: Q01DX009 (ip), vehicle: saline with Tween-80
[6] = endpoint: mean survival time, dose: 400.0 mg/kg/injection, schedule: Q01DX009 (ip), vehicle: saline with Tween-80
[7] = endpoint: mean survival time, dose: 100.0 mg/kg/injection, schedule: Q01DX001 (ip), vehicle: saline with Tween-80
[8] = endpoint: mean survival time, dose: 100.0 mg/kg/injection, schedule: Q04DX002 (ip), vehicle: saline with Tween-80
[9] = endpoint: mean survival time, dose: 200.0 mg/kg/injection, schedule: Q01DX001 (ip), vehicle: saline with Tween-80
[10] = endpoint: mean survival time, dose: 200.0 mg/kg/injection, schedule: Q04DX002 (ip), vehicle: saline with Tween-80
[11] = endpoint: mean survival time, dose: 100.0 mg/kg/injection, schedule: Q04DX003 (ip), vehicle: saline
[12] = endpoint: mean survival time, dose: 400.0 mg/kg/injection, schedule: Q01DX001 (ip), vehicle: saline with Tween-80
[13] = endpoint: mean survival time, dose: 100.0 mg/kg/injection, schedule: Q01DX001 (ip), vehicle: saline
[14] = endpoint: mean survival time, dose: 200.0 mg/kg/injection, schedule: Q01DX001 (ip), vehicle: saline
[15] = endpoint: mean survival time, dose: 400.0 mg/kg/injection, schedule: Q01DX001 (ip), vehicle: saline
[16] = endpoint: mean survival time, dose: 400.0 mg/kg/injection, schedule: Q04DX002 (ip), vehicle: saline with Tween-80
[17] = endpoint: mean survival time, dose: 50.0 mg/kg/injection, schedule: Q01DX009 (ip), vehicle: saline with Tween-80
[18] = endpoint: mean survival time, dose: 200.0 mg/kg/injection, schedule: Q04DX003 (ip), vehicle: saline
[19] = endpoint: mean survival time, dose: 400.0 mg/kg/injection, schedule: Q04DX003 (ip), vehicle: saline

CC(=O)OC1C(CO)OC(n2ccc3c(N)ncnc32)C1O (stereo unspecified)
T/C (endpoint: mean survival time, dose: 5.0 mg/kg/injection, schedule: Q01DX001 (ip), vehicle: saline): 104 % of control | T/C (endpoint: mean survival time, dose: 10.0 mg/kg/injection, schedule: Q01DX001 (ip), vehicle: saline): 117 % of control | T/C (endpoint: mean survival time, dose: 20.0 mg/kg/injection, schedule: Q01DX001 (ip), vehicle: saline): 117 % of control | T/C (endpoint: mean survival time, dose: 40.0 mg/kg/injection, schedule: Q01DX001 (ip), vehicle: saline): 110 % of control

O=c1[nH]cnc2c1cnn2CN1CCOCC1
T/C (endpoint: median survival time, dose: 25.0 mg/kg/injection, schedule: Q01DX009 (ip), vehicle: Klucel (hydroxypropylcellulose) (HPC)): 106 % of control | T/C (endpoint: median survival time, dose: 50.0 mg/kg/injection, schedule: Q01DX009 (ip), vehicle: Klucel (hydroxypropylcellulose) (HPC)): 106 % of control | T/C (endpoint: median survival time, dose: 100.0 mg/kg/injection, schedule: Q01DX009 (ip), vehicle: Klucel (hydroxypropylcellulose) (HPC)): 110 % of control | T/C (endpoint: median survival time, dose: 200.0 mg/kg/injection, schedule: Q01DX009 (ip), vehicle: Klucel (hydroxypropylcellulose) (HPC)): 114 % of control

Cc1ccc(NC(=O)Nc2ccccc2Cl)c(C)c1
T/C [1]: 102 % of control | T/C [2]: 90 % of control | T/C [3]: 93 % of control

Nc1nc(N)c(N=Nc2ccccc2S(=O)(=O)O)c(N)n1
T/C [4]: 94 % of control | T/C [1]: 95 % of control | T/C [5]: 108 % of control | T/C [2]: 100 % of control | T/C [6]: 100 % of control | T/C [3]: 93 % of control

N/C(=C\C(=O)c1ccccc1)c1ccccc1
T/C [1]: 94 % of control | T/C [2]: 107 % of control | T/C [3]: 100 % of control

CN1CCC(O)(c2ccccc2C2=NC(C)(C)CO2)CC1
T/C (endpoint: mean survival time, dose: 50.0 mg/kg/injection, schedule: Q04DX002 (ip), vehicle: saline with Tween-80): 96 % of control | T/C [7]: 103 % of control | T/C [8]: 101 % of control | T/C [9]: 102 % of control | T/C [10]: 108 % of control

C[n+]1ccn(CC(=O)c2ccccc2)c1
T/C (endpoint: mean survival time, dose: 25.0 mg/kg/injection, schedule: Q01DX009 (ip), vehicle: saline): 105 % of control | T/C (endpoint: mean survival time, dose: 50.0 mg/kg/injection, schedule: Q01DX009 (ip), vehicle: saline): 103 % of control | T/C (endpoint: mean survival time, dose: 100.0 mg/kg/injection, schedule: Q01DX009 (ip), vehicle: saline): 105 % of control | T/C [11]: 102 % of control

O=C(Nc1cc(Cl)ccc1C(=O)O)c1cccc(C[n+]2ccccc2)c1
T/C (endpoint: median survival time, dose: 50.0 mg/kg/injection, schedule: Q01DX005 (ip), vehicle: saline with Tween-80): 105 % of control | T/C (endpoint: median survival time, dose: 100.0 mg/kg/injection, schedule: Q01DX005 (ip), vehicle: saline with Tween-80): 98 % of control | T/C (endpoint: median survival time, dose: 200.0 mg/kg/injection, schedule: Q01DX005 (ip), vehicle: saline with Tween-80): 95 % of control | T/C (endpoint: median survival time, dose: 400.0 mg/kg/injection, schedule: Q01DX005 (ip), vehicle: saline with Tween-80): 91 % of control

c1ccc(N=NC2(c3ccccc3)CC(c3ccccc3)=NN(c3ccccc3)C2NNc2ccccc2)cc1 (stereo unspecified)
T/C [7]: 96 % of control | T/C [9]: 102 % of control | T/C [12]: 96 % of control

Cn1c(=O)cc(C(=O)NCCCN2CCOCC2)c2ccccc21
T/C [1]: 92 % of control | T/C [2]: 96 % of control | T/C [3]: 87 % of control

[Se]=[P+](OC1CCCCC1)OC1CCCCC1
T/C [13]: 90 % of control | T/C [14]: 92 % of control | T/C [15]: 92 % of control

N#Cc1ccccc1NN=NCc1ccccc1
T/C [7]: 97 % of control | T/C [12]: 90 % of control

CC(C)C(C#[N+][O-])C(C)C
T/C (endpoint: mean survival time, dose: 75.0 mg/kg/injection, schedule: Q01DX001 (ip), vehicle: other): 108 % of control | T/C (endpoint: mean survival time, dose: 150.0 mg/kg/injection, schedule: Q01DX001 (ip), vehicle: other): 105 % of control | T/C (endpoint: mean survival time, dose: 300.0 mg/kg/injection, schedule: Q01DX001 (ip), vehicle: other): 96 % of control

S=C1NC=CC(S)N1 (stereo unspecified)
T/C [8]: 103 % of control | T/C [10]: 98 % of control | T/C [16]: 98 % of control

BrC=C=C1CCCCC1
T/C [1]: 95 % of control | T/C [2]: 93 % of control | T/C [3]: 97 % of control

COc1ccc(COC(=O)Nc2ccccc2[N+](=O)[O-])cc1
T/C [8]: 91 % of control | T/C [10]: 87 % of control | T/C [16]: 91 % of control

CC1(O)CSC(C)(O)CS1 (stereo unspecified)
T/C (endpoint: mean survival time, dose: 6.25 mg/kg/injection, schedule: Q04DX002 (ip), vehicle: saline with Tween-80): 104 % of control | T/C (endpoint: mean survival time, dose: 12.5 mg/kg/injection, schedule: Q04DX002 (ip), vehicle: saline with Tween-80): 100 % of control | T/C (endpoint: mean survival time, dose: 25.0 mg/kg/injection, schedule: Q04DX002 (ip), vehicle: saline with Tween-80): 104 % of control

Nc1ncnc2c1c(CO)cn2C1OC(CO)C(O)C1O (stereo unspecified)
T/C (endpoint: mean survival time, dose: 25.0 mg/kg/injection, schedule: Q01DX005 (ip), vehicle: distilled water + Tween-80): 109 % of control | T/C (endpoint: mean survival time, dose: 50.0 mg/kg/injection, schedule: Q01DX005 (ip), vehicle: distilled water + Tween-80): 117 % of control | T/C (endpoint: mean survival time, dose: 100.0 mg/kg/injection, schedule: Q01DX005 (ip), vehicle: distilled water + Tween-80): 113 % of control

O=[N+]([O-])c1cc(S(=O)(=O)c2ccc(/C=C/c3ccc4c(c3)OCO4)c([N+](=O)[O-])c2)ccc1/C=C/c1ccc2c(c1)OCO2
T/C [4]: 95 % of control | T/C [5]: 88 % of control | T/C [6]: 93 % of control

O=P1(C(Cl)Cl)OCCCCO1
T/C [13]: 102 % of control | T/C [14]: 102 % of control | T/C [15]: 105 % of control

CCC(=O)c1ccc(O)c(O)c1
T/C (endpoint: mean survival time, dose: 25.0 mg/kg/injection, schedule: Q01DX009 (ip), vehicle: saline with Tween-80): 95 % of control | T/C [17]: 96 % of control | T/C [4]: 96 % of control and 100 % of control | T/C [11]: 96 % of control | T/C [18]: 105 % of control | T/C [19]: 92 % of control

c1coc(CNc2ncnc3c2ncn3CCCCCCn2cnc3c(NCc4ccco4)ncnc32)c1
T/C (endpoint: mean survival time, dose: 1.0 mg/kg/injection, schedule: Q01DX005 (ip), vehicle: other): 95 % of control | T/C (endpoint: mean survival time, dose: 2.0 mg/kg/injection, schedule: Q01DX005 (ip), vehicle: other): 92 % of control | T/C (endpoint: mean survival time, dose: 4.0 mg/kg/injection, schedule: Q01DX005 (ip), vehicle: other): 95 % of control | T/C (endpoint: mean survival time, dose: 16.0 mg/kg/injection, schedule: Q01DX005 (ip), vehicle: other): 95 % of control

CNC(=O)CCC(NC(=O)c1ccc(N(C)Cc2cnc3nc(N)nc(N)c3n2)cc1)C(=O)O (stereo unspecified)
T/C (endpoint: mean survival time, dose: 1.0 mg/kg/injection, schedule: Q01DX009 (ip), vehicle: sodium bicarbonate): 103 % of control | T/C (endpoint: mean survival time, dose: 10.0 mg/kg/injection, schedule: Q01DX009 (ip), vehicle: sodium bicarbonate): 113 % of control | T/C (endpoint: mean survival time, dose: 25.0 mg/kg/injection, schedule: Q01DX009 (ip), vehicle: sodium bicarbonate): 121 % of control

Cc1ccc(NCC2(/N=C/c3ccccc3)OC(CO)C(O)C2O)cc1 (stereo unspecified)
T/C (endpoint: mean survival time, dose: 100.0 mg/kg/injection, schedule: Q01DX009 (ip), vehicle: Klucel (hydroxypropylcellulose) (HPC)): 109 % of control | T/C (endpoint: mean survival time, dose: 177.0 mg/kg/injection, schedule: Q01DX009 (ip), vehicle: saline with Tween-80): 113 % of control | T/C (endpoint: mean survival time, dose: 200.0 mg/kg/injection, schedule: Q01DX009 (ip), vehicle: Klucel (hydroxypropylcellulose) (HPC)): 118 % of control | T/C (endpoint: mean survival time, dose: 266.0 mg/kg/injection, schedule: Q01DX009 (ip), vehicle: Klucel (hydroxypropylcellulose) (HPC)): 120 % of control

Cc1cc(S(=O)(=O)F)cc(Cl)c1S
T/C [8]: 102 % of control

CC(=O)NCC1CCN(C(C)=O)CC1
T/C [11]: 94 % of control | T/C [18]: 96 % of control | T/C [19]: 96 % of control

O=[N+]([O-])c1ccccc1CSc1ncnc2nc[nH]c12
T/C [17]: 110 % of control | T/C (endpoint: mean survival time, dose: 50.0 mg/kg/injection, schedule: Q04DX003 (ip), vehicle: saline with Tween-80): 108 % of control | T/C [4]: 121 % of control | T/C [1]: 110 % of control | T/C (endpoint: mean survival time, dose: 132.0 mg/kg/injection, schedule: Q04DX003 (ip), vehicle: saline with Tween-80): 108 % of control | T/C [5]: 158 % of control

C[N+](C)(Cc1ccccc1)c1ccccc1
T/C (endpoint: mean survival time, dose: 10.0 mg/kg/injection, schedule: Q01DX009 (ip), vehicle: saline): 109 % of control | T/C (endpoint: mean survival time, dose: 20.0 mg/kg/injection, schedule: Q01DX009 (ip), vehicle: saline): 94 % of control

Nc1c(-c2ncc[nH]2)ncn1C1OC(CO)C(O)C1O (stereo unspecified)
T/C [8]: 109 % of control | T/C [10]: 97 % of control | T/C [16]: 102 % of control

O=C(Cc1ccccc1)SC(=O)Cc1ccccc1
T/C [7]: 102 % of control | T/C [9]: 94 % of control | T/C [12]: 102 % of control

COc1ccc(CC(O)CO)cc1OCc1ccccc1 (stereo unspecified)
T/C [4]: 95 % of control | T/C [5]: 96 % of control | T/C [6]: 98 % of control
